Values quoted from earlier work in paper PMC3530844 (ACS medicinal chemistry letters, 2012).

Key:
hD3 receptors = hD3 receptors (Homo sapiens, UniProt P35462); settings: [35S]GTPγS; ref Ghosh et al., J. Med. Chem. 2010, 53, 2114-2125
hD2 receptors = hD2 receptors (Homo sapiens, UniProt P14416); settings: [35S]GTPγS; ref Ghosh et al., J. Med. Chem. 2010, 53, 2114-2125
Chain of hD2 receptors (P14416 whole entry): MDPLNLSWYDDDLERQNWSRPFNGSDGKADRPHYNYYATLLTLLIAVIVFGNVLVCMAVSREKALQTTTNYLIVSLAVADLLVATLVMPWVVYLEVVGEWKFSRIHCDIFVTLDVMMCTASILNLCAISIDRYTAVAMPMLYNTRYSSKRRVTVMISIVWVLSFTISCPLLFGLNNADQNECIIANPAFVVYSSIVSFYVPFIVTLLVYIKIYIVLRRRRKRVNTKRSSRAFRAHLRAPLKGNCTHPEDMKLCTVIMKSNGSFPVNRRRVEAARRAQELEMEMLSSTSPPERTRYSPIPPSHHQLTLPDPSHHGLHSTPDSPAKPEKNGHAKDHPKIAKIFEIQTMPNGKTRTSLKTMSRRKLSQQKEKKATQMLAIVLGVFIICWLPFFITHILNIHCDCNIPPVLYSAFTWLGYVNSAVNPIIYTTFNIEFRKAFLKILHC

Chain of hD3 receptors (P35462 whole entry): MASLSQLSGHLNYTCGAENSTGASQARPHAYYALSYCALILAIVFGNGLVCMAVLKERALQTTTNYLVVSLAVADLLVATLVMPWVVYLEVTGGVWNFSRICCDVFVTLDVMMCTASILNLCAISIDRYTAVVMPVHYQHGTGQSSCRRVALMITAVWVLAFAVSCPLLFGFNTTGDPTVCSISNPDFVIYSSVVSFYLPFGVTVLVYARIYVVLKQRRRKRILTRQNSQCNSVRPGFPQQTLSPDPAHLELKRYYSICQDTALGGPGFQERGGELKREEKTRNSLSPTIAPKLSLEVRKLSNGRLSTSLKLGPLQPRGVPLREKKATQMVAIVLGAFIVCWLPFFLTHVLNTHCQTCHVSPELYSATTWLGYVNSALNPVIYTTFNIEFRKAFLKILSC

CCCN(CCC)CCc1cccc2c1CC(=O)N2 [Ropinirole]
%Emax hCHO-D3 (hD3 receptors): 67 ± 8% | %Emax hCHO-D2 (hD2 receptors): 74 ± 0.9%
